From US5028598A, “Oxetanocin derivatives and their salts as well as use thereof” (Nippon Kayaku Kabushiki Kaisha, priority 1989, dated 1991)
Values after ≈ are worked out from the molar mass of the structure shown.

Assays:
[1] = system: AIDS virus; test: Anti-AIDS viral activity: virus antigen in infected MT-4 cells by indirect fluorescent antibody method; assay type: cell-based; conditions: Human immunodeficiency virus 1, MT4, compound added 2 hours before virus, 10^3 to 10^4 infection units, cultured 4 days, read-out: EC50 (50% infection inhibitory concentration)
Protocol: After 0.5 ml of cell suspension prepared from MT-4 cells in 1×10^5 /ml was charged in a 24 well tray, 50 μl of a solution containing a predetermined quantity of Compound (lH) or Compound (lP) was added to the suspension. After culturing at 37° C. for 2 hours in 5% (v/v) carbon dioxide incubator, 10^3 to 10^4 infection units of AIDS virus were added and cultured for 4 days. Then, a part of the culture medium was applied onto a slide glass and immobilized with acetone, after which development of virus antigen was observed by indirect fluorescent antibody method. As the primary antibody of the fluorescent antibody method, a serum of AIDS patient was used. As its secondary antibody, FITC-labelled anti-human IgG antibody was used. Based on a proportion of the infected cells and non-infected cells where the chemical was added and where no chemical was added, a rate of infection was calculated. A concentration of the chemical and the rate of infection were plotted on semilogarithmic paper to determine 50% infection inhibitory concentration (EC50 value).

[2] = Cytotoxicity against MT-4 cells without virus (Trypane Blue staining, viable cell count); assay type: cell-based; conditions: human, no virus added, read-out: CC50 (50% cytotoxicity)
Protocol: Furthermore, cytotoxicity of Compound (lH) and Compound (lP) against MT-4 cells was examined without adding virus. After staining with […] Blue, viable cells were counted. Based on the count of viable cells where the chemical was added and where no chemical was added, a degree of inhibition was calculated. A concentration of the chemical and the degree of inhibition were plotted on semilogarithmic paper to determine 50% cytotoxicity (CC50 value).

EC50 [1]	Structure (SMILES)	CC50 [2]
0.035 µg/mL (≈ 0.139 µM)	Nc1nnnc2c1ncn2[C@@H]1O[C@H](CO)[C@H]1CO [Compound (1H)]	> 100 µg/mL
0.14 µg/mL (≈ 0.421 µM)	Nc1nnnc2c1ncn2[C@@H]1O[C@H](COP(=O)(O)O)[C@H]1CO [Compound (1P)]	> 100 µg/mL
